The assay has as its target T1, CCR-3 receptor (Homo sapiens, UniProt P51677).
T1 construct: expressed in transfected cells; host or cells: L1.2 (murine pre-B lymphoma line) stably transfected with CCR-3
T1 sequence (P51677 1-355): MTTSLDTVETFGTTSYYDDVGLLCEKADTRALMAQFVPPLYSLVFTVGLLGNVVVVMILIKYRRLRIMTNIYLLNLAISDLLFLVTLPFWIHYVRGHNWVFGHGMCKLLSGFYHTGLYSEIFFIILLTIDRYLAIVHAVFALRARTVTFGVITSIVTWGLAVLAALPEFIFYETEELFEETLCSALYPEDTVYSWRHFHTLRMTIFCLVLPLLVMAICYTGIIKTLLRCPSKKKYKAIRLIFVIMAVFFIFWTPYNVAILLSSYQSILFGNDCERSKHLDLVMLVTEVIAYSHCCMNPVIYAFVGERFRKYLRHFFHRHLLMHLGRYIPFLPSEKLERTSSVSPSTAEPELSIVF
Kind of assay: CCR-3 Receptor Binding Assay - In Vitro (inhibition of 125I eotaxin binding to CCR-3 L1.2 transfectant cells). The following applies: inhibition of binding of 125I-eotaxin to CCR-3 L1.2 transfectant cells, 1 hour at room temperature. The procedure: The CCR-3 antagonistic activity of the compounds of the invention was determined by their ability to inhibit the binding of ^125 I eotaxin to CCR-3 L1.2 transfectant cells (see Ponath, P. D. et al., J. Exp. Med., Vol. 183, 2437–2448, (1996)).
The assay was performed in Costar 96-well polypropylene round bottom plates. Test compounds were dissolved in DMSO and then diluted with binding buffer (50 mM HEPES, 1 mM CaCl2, 5 mM MgCl2, 0.5% bovine serum albumin (BSA), 0.02% sodium azide, pH 7.24) such that the final DMSO concentration was 2%. 25 μl of the test solution or only buffer with DMSO (control samples) was added to each well, followed by the addition of 25 μl of ^125I-eotaxin ([…]) (NEX314, New England Nuclear, Boston, Mass.) and 1.5×10^5 of the CCR-3 L1.2 transfected cells in 25 μl binding buffer. The final reaction volume was 75 μl.
After incubating the reaction mixture for 1 hour at room temperature, the reaction was terminated by filtering the reaction mixture through polyethylenimine treated Packard Unifilter GF/C filter plate (Packard, Chicago, Ill.). The filters were washed four times with ice cold wash buffer containing 10 mm HEPES and 0.5M sodium chloride (pH 7.2) and dried at 65° C. for approximately 10 minutes. 25 μl/well of Microscint-20® scintillation fluid (Packard) was added and the radioactivity retained on the filters was determined by using the Packard TopCount®.

The values below come from patent US7019007B2 (Syntex (U.S.A.) LLC, priority 2001, dated 2006).

The term IC50 denotes the midpoint of a concentration-inhibition curve. Read a low IC50 as inhibition by little substance. For the compound `CC(C)NC(=O)N[C@@H]1CCC[C@H]1N1CCC(Cc2ccc(Cl)cc2)CC1`, the IC50 was determined as 885 nM.
As to `O=C(NC1CCCCC1)N[C@@H]1CCC[C@H]1N1CCC(Cc2ccc(Cl)cc2)CC1`, the IC50 was 398 nM.
As for `CCCCNC(=O)N[C@@H]1CCC[C@H]1N1CCC(Cc2ccc(Cl)cc2)CC1`, the figure is 507 nM; as for `O=C(N[C@@H]1CCC[C@H]1N1CCC(Cc2ccc(Cl)cc2)CC1)C1CCCCC1` [Cyclohexanecarboxylic acid {(1R,2R)-2-[4-(4-chloro-benzyl)-piperidin-1-yl]-cyclopentyl}-amide], 2910 nM.
As for `CCOC(=O)CCNC(=O)N[C@@H]1CCC[C@H]1N1CCC(Cc2ccc(Cl)cc2)CC1`, the figure is 729 nM; as for `C=CCNC(=O)N[C@@H]1CCC[C@H]1N1CCC(Cc2ccc(Cl)cc2)CC1`, 499 nM.
